One test concerns the target cyclophilin D (Homo sapiens, UniProt P30405). In words: Rotamase activity (method of Kofron et al). The test is classed as biochemical. As to the method:
PPIase activity is assessed with the α-chymotrypsin-coupled enzymatic assay [Determination of kinetic constants for peptidyl cis-trans isomerase by an improved spectrophotometric assay (1 991); Kofron J L, Kuzmic P, Kishore V, Colon-Bonilla E and Rich D., Biochemistry 30, 6127–6134]. α-Chymotrypsin selectively hydrolyses the C-terminal p-nitroanilide bond of the substrate in the trans X-Pro conformer only. This hydrolysis releases a chromophore 4-nitroaniline, the accumulation of which is recorded by measuring the absorbance at 400 nm as a function of time. […] Substrate (stock solution of 100 mM) was dissolved in LiCl/TFE. The experiment took place at 4° C. Constant temperature was maintained within the cuvette by a Peltier (PTP-1) temperature control unit. A mini magnetic stirring system (telemoduel from Variomag)) was used for mixing the solution in the cuvette after the addition of the substrate. A Perkin Elmer UV/VIS Lambda 20 spectrophotometer was used. […]

Another test has as its target Cyp-D Wild-type (Homo sapiens, UniProt P30405). Briefly: Fluorescence titration: interaction with Cyclophilin D. The test is classed as binding. As to the method: Fluorescence Assay: Interaction with Cyclophilin D
Further fluorescence titration studies were undertaken to investigate the interaction of selected compounds of the invention with cyclophilin D. The assay was carried out in accordance with the method described in Maurice R. Eftink and Camillo A. Ghiron, [Fluorescence Quenching Studies with Proteins, Analytical Biochemistry 114, 199–227 (1981)].

For the next test, the target named is Cyclophilin A (Homo sapiens, UniProt P62937). In words: Fluorescence assay: interaction with Cyclophilin A (dissociation constant). The note with it: 20° C., read-out: Kd determined by fluorescence assay. The test is classed as binding. As to the method: In each case, the binding constant was measured by means of a fluorescence assay, for example as disclosed by Husi, H. and Zurini, M. G. M. [Comparative binding studies of cyclophilins to cyclosporin-A and derivatives by fluorescence measurements, Analytical Biochemistry, 1994, 222, 251–255].
Fluorescence Assay: Interaction with Cyclophilin A
The dissociation constant (Kd) for a number of ligands has been was obtained by fluorescence measurements. Cyclophilin A has only one tryptophan, located about 8 Å from the centre of the active site making a hydrogen bond to the inhibitor cyclosporin when bound. After each addition of ligand, the portion of the protein bound is proportional to the fractional fluorescence change. Measurements were carried out using a Perkin Elmer LS50B fluorescence spectrophotometer. The experiments took place at 20° C. Constant temperature was maintained within the cuvette by a temperature control. The protein solution was equilibrated until the signal was stable. A 1.4 ml fluorescence cuvette was used (Hellma 6140F). The excitation wavelength was 280 nm and the emission wavelength was varied from 330 to 345 nm according to protein and ligand. Emission and excitation slits varied from 2.5 to 10 nm, determined by experimental parameters.
At this point the concentration of the bound ligand equals the free protein. For each ligand concentration one fluorescence value was measured, and at the same concentrations a reference emission value was taken. The difference between the two values was calculated and a new corrected value was used to determine the Kd graphically.
Cyp-A solutions of […] in 50 mMTris, 100 mM NaCl, pH=7.4 were used. Protein concentration varied according to the ligand under test.

The next test deals with cyclophilin (Homo sapiens, UniProt P62937). Briefly: Binding studies, binding constant to cyclophilin.
In a further test the target is Cyp-A (Homo sapiens, UniProt P62937). In words: PPIase activity, α-chymotrypsin-coupled enzymatic assay. The test is classed as biochemical. The note with it: 4° C., read-out: Kd determined by PPIase assay. As to the method: PPIase activity is assessed with the α-chymotrypsin-coupled enzymatic assay [Determination of kinetic constants for peptidyl cis-trans isomerase by an improved spectrophotometric assay (1 991); Kofron J L, Kuzmic P, Kishore V, Colon-Bonilla E and Rich D., Biochemistry 30, 6127–6134]. α-Chymotrypsin selectively hydrolyses the C-terminal p-nitroanilide bond of the substrate in the trans X-Pro conformer only. This hydrolysis releases a chromophore 4-nitroaniline, the accumulation of which is recorded by measuring the absorbance at 400 nm as a function of time. […] Substrate (stock solution of 100 mM) was dissolved in LiCl/TFE. The experiment took place at 4° C. Constant temperature was maintained within the cuvette by a Peltier (PTP-1) temperature control unit. A mini magnetic stirring system (telemoduel from Variomag)) was used for mixing the solution in the cuvette after the addition of the substrate. A Perkin Elmer UV/VIS Lambda 20 spectrophotometer was used.
The following materials were used: • Substrate: […] (Bachem AG) (N-succinyl-Ala-Ala-Pro-Phe-pnitroanilide) • Proteins: Cyp-A solution was freshly prepared before the experiment from frozen stock solution, at the appropriate concentration by dilution in buffer 50 mM Hepes, 100 mM NaCl pH=8.0. α-chymotrypsin (Sigma)
In a typical experiment 90 μl of 2.5–30 nM cyclophilin was made up to 2520 μl with buffer A in a 3 ml glass cuvette. The cuvette then was preincubated for 30 min on ice. Immediately before the assay, 300 μl of chymotrypsin solution (50 mg/ml in 10 mM HCl) was added, followed by 90 μl of a 3.7 mM stock solution of Suc-Ala-Ala-Pro-PNA in LiCl (470 mM)/TFE. The reaction progress was monitored by the absorbance change at 400 nm that accompanies the hydrolysis of the amide bond and the release of 4-nitroaniline product.

Like-named read-outs stand apart in the source and are kept apart here.

Cyclophilin A, sequence (P62937 whole entry): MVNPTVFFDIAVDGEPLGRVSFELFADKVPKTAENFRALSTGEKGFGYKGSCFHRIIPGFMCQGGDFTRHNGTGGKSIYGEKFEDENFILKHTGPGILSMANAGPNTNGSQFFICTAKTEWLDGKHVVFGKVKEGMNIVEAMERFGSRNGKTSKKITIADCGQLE
Cyp-A, sequence (P62937 whole entry): as above
cyclophilin D, sequence (P30405 30-207): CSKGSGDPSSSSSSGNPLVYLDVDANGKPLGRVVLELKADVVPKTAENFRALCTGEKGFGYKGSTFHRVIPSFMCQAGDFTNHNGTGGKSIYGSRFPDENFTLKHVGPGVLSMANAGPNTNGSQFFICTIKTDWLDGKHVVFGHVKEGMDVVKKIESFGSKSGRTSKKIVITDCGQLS
Cyp-D Wild-type, sequence (P30405 30-207): as above
cyclophilin, sequence (P62937 whole entry): as the sequence (P62937 whole entry) above

With `COC(=O)[C@@H](NC1=CC(=O)CC(C)(C)C1)C(C)C` [EM 3/22/1], the figures for the “Rotamase activity % Control” value on cyclophilin D (50 μM), at cyclophilin D (100 μM) and at cyclophilin D (200 μM) were 110 % Control, 102 % Control and 63 % Control, respectively. Also, the Kd (in general, the concentration at which binding is half-saturated) on Cyp-D Wild-type was 103 µM; on Cyclophilin A, more than 25000 µM.
As to `CC1(C)CC(=O)CC(=O)C1` [dimedone, reference compound], the equilibrium dissociation constant (Kd) on cyclophilin (read-out: binding constant (Kd) to cyclophilin, by way of comparison) was determined as 22 mM.
In the case of `CC1(C)CC(=O)CC(=O)C1Cc1ccccc1` (stereo not drawn) [EM 5/11], the “Rotamase activity % Control” value at cyclophilin D (50 μM) was found to be 84 % Control; on cyclophilin D (100 μM), 99 % Control; at cyclophilin D (200 μM), 71 % Control. On Cyp-D Wild-type, this compound came in with a Kd of 170 µM.
Take `COC(=O)[C@H](Cc1ccccc1)NC(=C1C(=O)CC(C)(C)CC1=O)C(NC(=O)OCc1ccccc1)C(C)C` (stereo partly drawn) [EM 2/40, N-[1-(4,4-dimethyl-2,6-dioxocyclohexylidene)-2-benzyloxycarbonylamino-3-methylbutyl]phenylalanine methyl ester]: the “Rotamase activity % Control” value came to 96 % Control at cyclophilin D (50 μM), 100 % Control at cyclophilin D (100 μM) and 59 % Control on cyclophilin D (200 μM). The equilibrium dissociation constant (Kd) at Cyp-D Wild-type was 110 µM; at Cyclophilin A, more than 25000 µM.
For the compound `CC(C)[C@H](NC(=O)OCc1ccccc1)C(=O)OC1=CC(=O)CC(C)(C)C1` [EM 2/34, 3-(N-benzyloxycarbonyl-L-valinyloxy)-5,5-dimethyl-2-cyclohexen-1-one], the equilibrium dissociation constant (Kd) on cyclophilin is approximately 0.001 mM; at Cyp-D Wild-type, 347 µM; at Cyp-A it was 23 µM. The “Rotamase activity % Control” value on cyclophilin D (50 μM) amounted to 81 % Control; on cyclophilin D (100 μM), 80 % Control; at cyclophilin D (200 μM) it was 33 % Control.
On to `CC1(C)CC(=O)C=C(OC(=O)[C@H](Cc2ccccc2)NC(=O)OCc2ccccc2)C1` [EM 3/26/1/2], for which the “Rotamase activity % Control” value was found to be 83 % Control on cyclophilin D (50 μM), 72.5 % Control on cyclophilin D (100 μM) and 33 % Control on cyclophilin D (200 μM). Moreover, the figures for the equilibrium dissociation constant (Kd) on Cyp-D Wild-type and at Cyclophilin A were 154 µM and more than 25000 µM, respectively.
Regarding `COC(=O)[C@@H](NC(=O)OCc1ccccc1)C(C)C` [EM 3/27], the “Rotamase activity % Control” value is 111 % Control on cyclophilin D (50 μM), 96 % Control at cyclophilin D (100 μM) and 60 % Control on cyclophilin D (200 μM).
For `COC(=O)CC1C(=O)CC(=O)CC1(C)C` (stereo not drawn) [EM 4/35/1/1], at Cyclophilin A, the Kd was determined as 45 µM.
Same read-out and setting: as for `COC(=O)N[C@H](C(=O)OC1=CC(=O)CC(C)(C)C1)C(C)C` [EM 4/18/1], the figure is 70 µM.
As to `CC(C)[C@H](NC(=O)OC(C)(C)C)C(=O)OC1=CC(=O)CC(C)(C)C1` [EM 3/29/1/1], the “Rotamase activity % Control” value at cyclophilin D (50 μM) came to 107 % Control; on cyclophilin D (100 μM), 77.5 % Control; at cyclophilin D (200 μM), 50 % Control. Also, binding at Cyp-D Wild-type was characterised by a dissociation constant (Kd) of 362 µM.
The corresponding values for `CC(C)C[C@H](NC(=O)OCc1ccccc1)C(=O)OC1=CC(=O)CC(C)(C)C1` [EM 3/26/2/5, 3-(N-benzyloxycarbonyl-L-leucinyloxy)-5,5-dimethyl-2-cyclohexen-1-one] are 79 % Control, 78 % Control, 52 % Control and 116 µM.
On to `CC(C)COC(=O)OC1=CC(=O)CC(C)(C)C1` [EM 3/48/2/1], for which, at Cyclophilin A, the Kd is 130 µM.
For the compound `CC(C)[C@H](NC(=O)OCc1ccccc1)C(=O)OC1=CC(=O)C(C)C(C)(C)C1` (stereo partly drawn) [EM 4/10/1], the “Rotamase activity % Control” value at cyclophilin D (50 μM) amounted to 78 % Control; at cyclophilin D (100 μM) it was 84.5 % Control; on cyclophilin D (200 μM) it was 60 % Control. Moreover, the Kd was found to be 815 µM on Cyp-D Wild-type and 20 µM at Cyp-A.
As to `CC(C)[C@H](NC(=O)OCc1ccccc1)C(=O)OC1=CC(=O)C(C)(C)C(C)(C)C1` [EM 4/21/1], on Cyclophilin A, the Kd stood at 68 µM.
Take `CC1(C)CC(=O)C=C(N)C1` [EM 4/12/2]: the “Rotamase activity % Control” value at cyclophilin D (50 μM) is listed as 104 % Control; on cyclophilin D (100 μM), 106.5 % Control; on cyclophilin D (200 μM), 98 % Control. Also, the Kd on Cyp-D Wild-type is 107 µM.
With `CC(C)C(NC(=O)OCc1ccccc1)C(O)=C1C(=O)CC(C)(C)CC1=O` (stereo not drawn) [EM 3/11/1, 1-(4,4-dimethyl-2,6-dioxocyclohexylidene)-2-benzyloxycarbonylamino-3-methylbutanol], the “Rotamase activity % Control” value was found to be 109 % Control at cyclophilin D (50 μM), 102.5 % Control on cyclophilin D (100 μM) and 61 % Control at cyclophilin D (200 μM). The values for the Kd on Cyp-D Wild-type and on Cyclophilin A were 203 µM and more than 25000 µM, respectively.
With `CC1(C)CC(=O)CC(=O)C1C/C=C/c1ccccc1` (stereo not drawn) [EM 5/12/3], at Cyclophilin A, the dissociation constant (Kd) stood at 85 µM.
Turning to `CC1C(=O)CC(=O)CC1(C)C` (racemic) [EM 4/33/1], the Kd on Cyp-A was found to be 134 µM.

The record behind these values is patent publication US7223795B2, “Modified peptide derivatives and methods of use thereof” (Cyclacel Limited, priority 2000, dated 2007).
